Source: US20080194575A1, “Treatment for non-alcoholic-steatohepatitis” (priority 2006, published 2008)

Key:
Type in all cases: in vivo, C56BL/6 mice
[1] = High sucrose diet (HSD) induced obesity in mice: body weight gain and abdominal fat; conditions: HSD 4 weeks, compound A 30 mg/kg daily subcutaneous
Method: (§1) Animals, feeding and treatments Two groups of 8 week old male C56BL/6 mice were set under a high sucrose containing diet together with 1% Orotic acid (HSD) for 4 weeks (TD 02366, Tekland Mills) (Feldstein et al. J Hepatol, 39:978-983(2003)). All animals were purchased from Jackson Laboratories and were treated and handled following the National Academy of Sciences criteria (NIH publication 86-23 revised 1985). One group of animals received a daily subcutaneous injection of compound A at a concentration of 30 mg/kg (compound A) and the second group received vehicle with the same frequency (Vehicle). Additionally, a third group of mice was fed under a normal chow diet (control).

[2] = Serum analysis after fasting in HSD fed mice: blood glucose, serum insulin (insulin resistance); conditions: HSD 4 weeks, compound A 30 mg/kg daily subcutaneous
Method: as §1
(§2) Serum analysis Blood was taken from mice after fasting and glucose levels were measured with Ascensia Elite sensor (Bayer). Serum Insulin (Linco Research) and Adiponectin (R&D systems) levels were quantified by ELISA.

[3] = system: HSD induced hepatic steatosis; test: Histological evaluation of HSD induced hepatic steatosis (H&E semiquantitative score, Oil-Red-O staining); conditions: HSD 4 weeks
Method: as §1
(§3) Histological evaluation Livers from mice were harvested and after fixation with formaldehyde embedded in paraffin for further histological evaluation. Hematoxylin & Eosin staining was performed in liver sections and steatosis was assessed following a semiquantitative scoring system. Oil red 0 staining was performed to evidence the presence of intracellular lipds. Liver fibrosis was determined by Sirius Red which stains collagen fibres. Scoring of fibrosis was performed following the Brunt system. Additionally, immunohistochemistry (IHC) was performed on cryosections for the polyclonal anti-P65 (A) antibody, dilution 1/50 and anti-TNFα antibody, dilution 1/20 (both from Santa Cruz Biotechnology Inc.). […]

NF-κB = test: HSD induced NF-κB activation in liver (I-κBα western blot, p65 immunohistochemistry); conditions: HSD 4 weeks, compound A 30 mg/kg daily subcutaneous
Method: as §1, §3

IL-6 = IL-6 expression in liver by Real Time RT-PCR; conditions: HSD 4 weeks, compound A 30 mg/kg daily subcutaneous, HSD/vehicle vs HSD/compound A (FIG. 3A)
Method: as §1
(§4) RNA isolation and quantitative Real Time PCR RNA from frozen liver tissue was extracted with PeqGOLD-RNAPure kit (Peqlab). First strand synthesis was performed with Oligo dT primers and reverse transcription with M-MLV Reverse Transcriptase (Invitrogen Corp.) Quantitative Real Time PCR was performed with the AbbyPrism 7300 Real-Time PCR system from Applied Biosystems by using SYBR Green Reagent (Applied biosystems). Real time reactions were performed twice in triplicates. All values were normalized to the level of GAPDH. Primer sequences are detailed in Table 1.

TNF = TNF expression in liver by Real Time RT-PCR; conditions: HSD 4 weeks, compound A 30 mg/kg daily subcutaneous, HSD/vehicle vs HSD/compound A (FIG. 3B)
Method: as §1, §4

adiponectin = test: Serum and liver adiponectin expression by ELISA; conditions: after 4 weeks of HSD, compound A 30 mg/kg daily subcutaneous
Method: as §1, §2

PPARα = PPARα expression in liver (real time RT-PCR, western blot); conditions: HSD 4 weeks
Method: as §1
(§5) Western blot analysis Whole liver protein extracts were obtained by using ice- cold buffer (20 mM Tris pH 7.5, 150 mM NaCl, 1 mM EGTA, 1 mM EDTA, 1% Triton X-100, 2.5 mM sodium pyrophosphate and cocktail of protease inhibitors). […]
as §4, with “Real time reactions were performed twice in triplicates. All values were normalized to the level of GAPDH. Primer sequences are detailed in Table 1.” left out

CPT-1 = CPT-1 mRNA expression in liver by real time RT-PCR; conditions: HSD 4 weeks, compound A 30 mg/kg daily subcutaneous, vs vehicle (FIG. 4B)
Method: as §1, §4

Acyl-CoA oxidase (ACOX) = Acyl-CoA oxidase (ACOX) mRNA expression in liver by real time RT-PCR; conditions: HSD 4 weeks, compound A 30 mg/kg daily subcutaneous, vs vehicle (FIG. 4C)
Method: as §1, §4

PPARγ = PPARγ expression in liver on the mRNA and protein level; conditions: HSD 4 weeks
Method: as §1, §5
as §4, with “Real time reactions were performed twice in triplicates. All values were normalized to the level of GAPDH. Primer sequences are detailed in Table 1.” left out

[4] = system: fatty acid translocase/CD36; test: Fatty acid translocase/CD36 gene expression in liver by real time RT-PCR; conditions: HSD 4 weeks, compound A 30 mg/kg daily subcutaneous (FIG. 4E)
Method: as §1, §4

[5] = system: Cytochrome P450 2E1 (CYP2E1); test: CYP2E1 mRNA expression in liver by real time RT-PCR; conditions: HSD 4 weeks, compound A 30 mg/kg daily subcutaneous (FIG. 5A)
Method: as §1, §4

MnSOD = MnSOD mRNA expression in liver by real time RT-PCR; conditions: HSD 4 weeks, compound A 30 mg/kg daily subcutaneous, vs vehicle and chow controls (FIG. 5B)
Method: as §1, §4

Catalase = Catalase mRNA expression in liver by real time RT-PCR; conditions: HSD 4 weeks, compound A 30 mg/kg daily subcutaneous, vs vehicle and chow controls
Method: as §1, §4

Caspase-3 = Caspase-3 activity in whole liver extracts (Ac-DEVD-AMC); conditions: HSD 4 weeks, compound A 30 mg/kg daily subcutaneous (FIG. 6A)
Method: as §1
(§6) Detection of apoptosis Apoptotic cell death was determined in liver tissue by using two difference strategies. Caspase-3 activity was analysed in whole liver extracts. Proteins were extracted with the lysis buffer containing 1M Hepes, 10% CHAPS, 0.5 EDTA, 1 m DTT and 0.1 M pefa-block and further incubated with the fluorescent substrate Ac-DEVD-AMC (Biomol). The enzymatic activity was then measured at λ. excitation 390 nm and λ emission 510 nm and the result was corrected with the protein concentration. Additionally, we performed a TUNEL assay on frozen liver sections using the “In situ cell death detection Kit, POD” (Roche Diagnostics Corp.) following manufacturer's instructions.

hepatocyte apoptosis = test: TUNEL assay on frozen liver sections (hepatocyte apoptosis); conditions: HSD 4 weeks, compound A 30 mg/kg daily subcutaneous
Method: as §1, §6

[6] = system: HSD induced liver fibrosis; test: Liver fibrosis by Sirius red staining, Brunt score; conditions: HSD 4 weeks
Method: as §1, §3

[7] = compound A 30 mg/kg daily subcutaneous, vs HSD/vehicle

Compound: CC(=O)N1CCN(C(=O)c2ccc(Nc3nccc(-c4ccc(Cl)cc4)n3)cc2)CC1 [compound A, 1-(4-{4-[4-(4-Chloro-phenyl)-pyrimidin-2-ylamino]-benzoyl}-piperazin-1-yl)-ethanone]
- fat accumulation in the abdominal cavity ([1]; macroscopical, vs vehicle and chow control): less amount of fat that was not significantly different compared to control chow mice
- body weight gain ([1]; vs HSD/vehicle (FIG. 1A)): significant weight gain was observed in vehicle treated mice after 4 weeks of HSD feeding compared to compound A treated mice
- serum insulin levels ([2]; ELISA, vs HSD/vehicle (FIG. 1C)): roughly significantly less blood insulin that HSD/vehicle treated animals (p=0.06)
- blood glucose levels ([2]; fasted, HSD/vehicle vs HSD/compound A (FIG. 1B)): blood glucose levels were significantly higher in this group compared to animals treated with either HSD/compound A
- fat deposits in liver (Oil-Red-O staining) ([3]; compound A 30 mg/kg daily subcutaneous): only minor microvesicular fat dropples could be observed in some of the HSD/compound A mice analysed
- liver histology / steatosis (H&E staining) ([3]; compound A 30 mg/kg daily subcutaneous (FIG. 2)): liver histology similar to chow control animals with no clear evidence of fat accumulation
- I-κBα levels, western blot of whole liver extracts (NF-κB; lower levels in HSD/vehicle): I-κBα was clearly present in HSD/compound A
- NF-κB activation, p65 immunohistochemistry on liver sections (NF-κB; strong activation in HSD/vehicle): stainings were practically negative in HSD/compound A
- IL-6 mRNA expression (IL-6): upregulation of IL-6 and TNF mRNA expression was found compared to the HSD/compound A
- TNF mRNA expression (TNF): upregulation of IL-6 and TNF mRNA expression was found compared to the HSD/compound A
- adiponectin expression in serum (adiponectin; vs chow controls (FIG. 3C)): no significant change in adiponectin expression
- adiponectin expression in liver (adiponectin; vs chow controls (FIG. 3D)): no significant change in adiponectin expression
- PPARα protein, western blot (PPARα; [7]): higher presence of PPARα in livers from HSD/compound A mice than in HSD/vehicle animals
- PPARα mRNA expression (PPARα; real time RT-PCR, compound A 30 mg/kg daily subcutaneous (FIG. 4A)): significantly higher expression in liver from HSD fed mice treated with compound A
- CPT-1 mRNA expression (CPT-1): up-regulated in livers from mice that received the compound A compared to vehicle treated animals
- ACOX mRNA expression (Acyl-CoA oxidase (ACOX)): up-regulated in livers from mice that received the compound A compared to vehicle treated animals
- PPARγ mRNA expression (PPARγ; compound A 30 mg/kg daily subcutaneous (FIG. 4D)): upregulated in livers derived from these animals
- PPARγ protein expression, western blot (PPARγ; [7]): more pronounced presence in compound A mice
- CD36 gene expression [4]: upregulated in HSD/compound A mice
- CYP2E1 mRNA expression [5]: reduced HSD induced upregulation of CYP2E1 and its expression was not significantly different than the chow control group
- MnSOD mRNA expression (MnSOD): significantly higher in compound A treated animals compared to vehicle treated mice and chow controls
- Catalase mRNA expression (Catalase): significantly higher in compound A treated animals compared to vehicle treated mice and chow controls
- caspase 3 activity (Caspase-3): strongly reduced caspase 3 activity to a level as found in chow control mice
- TUNEL-positive cells (hepatocyte apoptosis): increase in TUNEL-positive cells, which could be blocked using compound A
- fibrosis score according to Brunt score ([6]; compound A 30 mg/kg daily subcutaneous, HSD/vehicle score 1.6): virtually zero
- liver collagen expression (Sirius red staining) ([6]; liver sections, compound A 30 mg/kg daily subcutaneous (FIG. 6B)): no significant degree of collagen expression could be detected
